In brackets after ≈: the same amount, converted by molar mass. Activity calls are given as the source filed them. No cut-off for these calls is given here.
Legend:
Staphylococcus aureus = test: Antibacterial activity against Staphylococcus aureus by dilution assay; assay type: functional
Escherichia coli = test: Antibacterial activity against Escherichia coli by dilution assay; assay type: functional
[1] = target: T1, Enoyl-[acyl-carrier-protein] reductase [NADH] (Mycobacterium tuberculosis) (UniProt P9WGR1); test: Inhibition of Mycobacterium tuberculosis H37Rv ATCC 27294 InhA assessed as bacterial growth inhibition after 5 days by microplate alamar blue assay
T1 sequence (whole entry): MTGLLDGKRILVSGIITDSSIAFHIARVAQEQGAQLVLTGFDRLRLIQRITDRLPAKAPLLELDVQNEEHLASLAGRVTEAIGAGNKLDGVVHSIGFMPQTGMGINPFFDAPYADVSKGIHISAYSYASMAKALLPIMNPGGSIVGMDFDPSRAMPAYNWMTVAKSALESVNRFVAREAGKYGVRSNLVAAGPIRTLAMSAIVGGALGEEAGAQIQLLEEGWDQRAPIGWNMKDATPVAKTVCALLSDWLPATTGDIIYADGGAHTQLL

Pseudomonas aeruginosa = test: Antibacterial activity against Pseudomonas aeruginosa by dilution assay; assay type: functional
[2] = Selectivity index, ratio of IC50 for cytotoxicity against African green monkey Vero cells to MIC for antitubercular activity against Mycobacterium tuberculosis H37Rv ATCC 27294; assay type: toxicity, cell-based; settings: read-out: Selectivity Index
Vero = test: Cytotoxicity against African green monkey Vero cells assessed as reduction in cell viability incubated for 48 hrs by MTT assay; assay type: cell-based; settings: Chlorocebus sabaeus
[3] = Cytotoxicity against African green monkey Vero cells assessed as growth inhibition at 62.5 ug/ml after 48 hrs by MTT assay relative to control; assay type: cell-based; settings: chlorocebus sabaeus, read-out: GI

| Structure (SMILES) | MIC (Staphylococcus aureus) [µg/mL] | MIC (Escherichia coli) | MIC [1] [µM] | MIC (Pseudomonas aeruginosa) | selectivity ratio [2] | IC50 (Vero) [µg/mL] | inhibition at 48 h, 62.5 ug/ml [3] [%] |
| --- | --- | --- | --- | --- | --- | --- | --- |
| Cc1ccc(Cn2cc(CSc3nnc(-c4cccnc4)o3)nn2)cc1 | 12.5 (≈ 34.3 µM) | 252 µg/mL (≈ 691 µM) | 34.3 (≈ 12.5 µg/mL) | 225 µg/mL (≈ 617 µM) |  |  |  |
| N#Cc1ccc(Cn2cc(CNC(=O)c3cnccn3)nn2)cc1 | 6.25 (≈ 19.6 µM) | 6.25 µg/mL (≈ 19.6 µM) | 4.88 (≈ 1.56 µg/mL) | 6.25 µg/mL (≈ 19.6 µM) | 342 | 533 (≈ 1670 µM) | 12.3 |
| N#Cc1ccc(Cn2cc(COC(=O)c3cccnc3)nn2)cc1 | 25 (≈ 78.3 µM) | 50 µg/mL (≈ 157 µM) | 78.3 (≈ 25 µg/mL) | 50 µg/mL (≈ 157 µM) |  |  |  |
| O=C(NCc1cn(Cc2ccccc2F)nn1)c1cnccn1 | 6.25 (≈ 20 µM) | 12.5 µg/mL (≈ 40 µM) | 9.99 (≈ 3.12 µg/mL) | 12.5 µg/mL (≈ 40 µM) |  |  |  |
| O=C(OCc1cn(Cc2ccc(F)cc2)nn1)c1cccnc1 | 50 (≈ 160 µM) | inactive | > 100 | 50 µg/mL (≈ 160 µM) |  |  |  |
| N#Cc1ccc(Cn2cc(COC(=O)c3ccccc3)nn2)cc1 | 25 (≈ 78.5 µM) | 25 µg/mL (≈ 78.5 µM) | 39.3 (≈ 12.5 µg/mL) | 50 µg/mL (≈ 157 µM) |  |  |  |
| N#Cc1ccc(Cn2cc(CNC(=O)c3cccnc3)nn2)cc1 | 6.25 (≈ 19.6 µM) | 6.25 µg/mL (≈ 19.6 µM) | 4.9 (≈ 1.56 µg/mL) | 6.25 µg/mL (≈ 19.6 µM) | 256 | 399 (≈ 1250 µM) | 17.7 |
| N#Cc1ccc(Cn2cc(CSc3nnc(-c4cccnc4)o3)nn2)cc1 | 50 (≈ 133 µM) | 50 µg/mL (≈ 133 µM) | 66.6 (≈ 25 µg/mL) | 50 µg/mL (≈ 133 µM) |  |  |  |
| O=C(NCc1cn(Cc2ccccc2F)nn1)c1ccccc1 | 50 (≈ 161 µM) | inactive | > 100 | 50 µg/mL (≈ 161 µM) |  |  |  |
| Cc1ccc(Cn2cc(CSc3nnc(-c4cnccn4)o3)nn2)cc1 | 12.5 (≈ 34.2 µM) | 12.5 µg/mL (≈ 34.2 µM) | 8.53 (≈ 3.12 µg/mL) | 25 µg/mL (≈ 68.4 µM) |  |  |  |
| N#Cc1ccc(Cn2cc(CSc3nnc(-c4cnccn4)o3)nn2)cc1 | 25 (≈ 66.4 µM) | 50 µg/mL (≈ 133 µM) | 16.6 (≈ 6.25 µg/mL) | 50 µg/mL (≈ 133 µM) |  |  |  |
| Fc1ccccc1Cn1cc(CSc2nnc(-c3cnccn3)o2)nn1 | 50 (≈ 135 µM) | inactive | > 100 | inactive |  |  |  |
| O=C(OCc1cn(Cc2ccc([N+](=O)[O-])cc2)nn1)c1cccnc1 | 25 (≈ 73.7 µM) | 25 µg/mL (≈ 73.7 µM) | 36.8 (≈ 12.5 µg/mL) | 25 µg/mL (≈ 73.7 µM) |  |  |  |
| Fc1ccc(Cn2cc(CSc3nnc(-c4cccnc4)o3)nn2)cc1 | 50 (≈ 136 µM) | inactive | > 100 | inactive |  |  |  |
| O=C(OCc1cn(Cc2ccc(C(F)(F)F)cc2)nn1)c1cnccn1 | 25 (≈ 68.8 µM) | 25 µg/mL (≈ 68.8 µM) | 8.59 (≈ 3.12 µg/mL) | 25 µg/mL (≈ 68.8 µM) |  |  |  |
| FC(F)(F)c1ccc(Cn2cc(CSc3nnc(-c4cccnc4)o3)nn2)cc1 | 25 (≈ 59.8 µM) | 50 µg/mL (≈ 120 µM) | > 100 | 50 µg/mL (≈ 120 µM) |  |  |  |
| O=[N+]([O-])c1ccc(Cn2cc(CSc3nnc(-c4cnccn4)o3)nn2)cc1 | 12.5 (≈ 31.5 µM) | inactive | 15.8 (≈ 6.25 µg/mL) | 25 µg/mL (≈ 63.1 µM) |  |  |  |
| O=C(OCc1cn(Cc2ccc(F)cc2)nn1)c1ccccc1 | 25 (≈ 80.3 µM) | 50 µg/mL (≈ 161 µM) | 80.3 (≈ 25 µg/mL) | 25 µg/mL (≈ 80.3 µM) |  |  |  |
| NC(=O)c1cnccn1 |  |  | 25.3 (≈ 3.12 µg/mL) |  |  |  |  |
| O=C(OCc1cn(Cc2ccc([N+](=O)[O-])cc2)nn1)c1ccccc1 | 50 (≈ 148 µM) | inactive | > 100 | inactive |  |  |  |
| Fc1ccc(Cn2cc(CSc3nnc(-c4cnccn4)o3)nn2)cc1 | 25 (≈ 67.7 µM) | 25 µg/mL (≈ 67.7 µM) | 33.8 (≈ 12.5 µg/mL) | 50 µg/mL (≈ 135 µM) |  |  |  |
| O=C(NCc1cn(Cc2ccc([N+](=O)[O-])cc2)nn1)c1cccnc1 | 6.25 (≈ 18.5 µM) | 12.5 µg/mL (≈ 36.9 µM) | 4.61 (≈ 1.56 µg/mL) | 6.25 µg/mL (≈ 18.5 µM) | 298 | 465 (≈ 1380 µM) | 7.08 |
| O=C(NCc1cn(Cc2ccc([N+](=O)[O-])cc2)nn1)c1ccccc1 | 50 (≈ 148 µM) | 50 µg/mL (≈ 148 µM) | > 100 | 50 µg/mL (≈ 148 µM) |  |  |  |
